This note sets out measurements from patent US20240292836A1, “AGENTS FOR REPELLING, KNOCKING DOWN, AND/OR KILLING BLOOD-SUCKING ARTHROPODS AND USES THEREOF” (The United States of America, as represented by the …, priority 2023, published 2024).

Assay [1] has as its system female Aedes aegypti adults. Put plainly: Arm-in-cage cloth-patch in vivo assay (topical repellency). To be noted: for Minimum Effective Dose (MED): Mean ± SEM, lowest dosage with five or fewer bites through repellent-treated cloth in 1-minute exposure, at least three volunteers; for topical repellency (in words): initial screening dose of 0.187 mg/cm^2; for MED, times lower than the initial screening dose: relative to initial screening dose of 0.187 mg/cm^2. The source says:
Arm-in-Cage Test Cloth-Patch in vivo Assay Pyrethroid-susceptible yellow fever mosquitoes Ae. aegypti (Orlando strain) were reared in the United States Department of Agriculture Mosquito and Fly Research Unit in Gainesville, FL under standard protocols. Three to seven-day-old, starved female mosquitoes were collected using a “draw box” (Posey, K. and Schreck, C. E, 1981, “An airflow apparatus for selecting female mosquitoes for use in repellent and attraction studies” Mosquito News 41: 566-568; US. Department of Agriculture, 1977, Repellent activity of compounds submitted by Walter Reed Army Institute of Research. Part 1. Protection time and minimum effective dosage against Aedes aegypti mosquitoes. Tech. Bull. No. 1549) and were placed in cages at an approximate density 200 mosquitoes/cage. Repellency was determined according to a standard protocol (Bernier, U. R., et al, 2022. “Evaluation and application of repellent-treated uniform/clothing and textiles against vector mosquitoes,” In Advances in Arthropod Repellents (pp. 69-94). Academic Press) and reported as the minimum effective dosage (MED). […] A nylon leg stocking was placed over the arm to prevent direct contact of the repellent-treated cloth patch with the skin. […]. Cloth was treated by placing a rolled bandage (50 cm^2) into each vial containing 1 mL of solution and allowing the patch to absorb the solution completely. The cloth was taped over a 4 by 9-cm opening cut into a vinyl plastic sheet that was draped around the volunteers' arms and taped in place. The cloth was air-dried approximately 15 min before conducting each test. The work reported here is an average of the MED for at least three volunteers. Each volunteer covered his or her arm with a nylon stocking to avoid contact between the skin and the treated cloth and wore a rubber glove to prevent mosquito bites on the hand.
. The minimum effective dose (MED) was determined for each repellent and subject, defined as the lowest concentration that prevents biting). MEDs from each subject were pooled and reported as the average among all replicates/subjects with SEM. A minimum of 3 replicates were performed on at least three human subjects. Written informed consent was obtained for all human subjects used in this study in accordance with IRB protocol #20193320, as approved by the WCG™ IRB.
Statistical Analyses: Student's T-test was used to compare the means between tested compound and DEET and Icaridin in the arm-in-cage in vivo assay and neurophysiological study.

Assay [2] relates to female Aedes aegypti adults. In words: High-throughput in vitro screening assay, spatial repellency. It is filed as in vivo. The settings on record: for 30-minute RD50 compared with that of DEET: 30 minutes, α = 0.05; for RD50 (30 min), half-repellent dose / RD50 (60 min), half-repellent dose: dose per filter paper surface area, 95% CI; for spatial repellency (in words): highest-tested dose of 100 μg/cm^2. The source says: A high-throughput screening method for evaluating spatial repellency and vapor toxicity, described by Jiang S., et al. (2019, “High-Throughput Screening Method for Evaluating Spatial Repellency and Vapour Toxicity to Mosquitoes,” Med. Vet. Entomol. 33: 388-396), was used for this study. As shown in FIG. 2 of Jiang S., et al., assay tubes were constructed by covering 12.5 cm glass tubes on one side with netting secured by a rubber band. The tubes were used in horizontal orientation. Adult mosquitos 2-7 days old were anesthetized on ice for approximately 5 minutes and 16 females were transferred to each tube. The other end of the tube was then closed with netting and a rubber band.
The conical ends of 50 mL centrifuge tubes (Eppendorf, Enfield, Connecticut, USA) were cut at approximately the 10 mL mark to create the end caps for the assay tubes. […] For repellency tests, filter papers for the “untreated” side of the assay tube received pure acetone, whereas filter papers for the “treated” side received acetone solution containing a dissolved compound of interest. For knockdown tests, both filter papers were treated with acetone solution containing one or more compounds of interest. Acetone on both filter papers served as negative controls.
For repellency assays, filter papers were given 10 minutes of evaporation time before being placed into the end caps with forceps (Jiang S., et al. 2019, Supra). For knockdown assays, filter papers were given 5 minutes of evaporation time before being placed into the end caps. […] Assay tubes were capped such that the cap securely overlapped the glass but approximately 5 mm of space was left between the netting and the filter paper so that the mosquitos could not contact the filter paper.
Assay tubes were placed on a white polystyrene platform with wooden sticks glued flatly across it to prevent the tubes from rolling. A straight black line was drawn down the center of the platform and assay tubes were centered on the line at the beginning of the tests. In repellency assays, data were collected at 15, 30, and 60 minutes after the end caps were placed on the assay tubes. Assay tubes were not disturbed for the entire 60 minutes. At each time point, the number of mosquitos that remained on the treated side was visually assessed and recorded. The treated side was alternated with each set of tests. For repellency tests, DEET at a dose of 100 μg/cm^2 served as the positive control.
For the high-throughput in vitro screening assays, analyses were conducted with R version 4.2.2 statistical software (R Core Team, 2022, “R: a language and environment for statistical computing. R foundation for statistical computing,” Vienna, Austria). Concentrations were calculated in terms of filter paper surface area (μg/cm^2) for repellency assays and in terms of assay tube volume (μg/cm^3) for knockdown assays.
Half-repellent (RD50), half-knockdown (KD50), and half-lethal (LD50) doses were calculated from dose-response curves (DRCs) obtained by four-parameter log-logistic equation models generated using the drc package (Dose Response Curve Analyses Software; Ritz C. et al., 2015, “Dose-response analysis using R,” PLOS ONE 10: e0146021). For repellency test analysis, the upper and lower asymptotes for the proportion of mosquitos remaining on the treated side were fixed at 0.5 and 0, respectively. For KD and mortality test analysis, the upper and lower asymptotes for the proportion of mosquitos knocked down or killed were fixed at 1.0 and 0, respectively. To determine whether RD50, KD50, or LD50 values differed across compounds at each timepoint, a joint model assuming different values for each compound and a null model that assumed a single value for all compounds were compared with a likelihood ratio test.

The structures appear in SMILES notation.

In the case of `COC(=O)c1cccc(OC)c1` [M3MOB, methyl 3-methoxybenzoate], in assay [1], the “Minimum Effective Dose (MED)” value was found to be 0.266 mg/cm^2 and the “topical repellency (in words)” value is given as “demonstrated repellency at doses lower than 0.187 mg/cm^2 on at least one test subject”. Also, the “30-minute RD50 compared with that of DEET” value in assay [2] is listed as “not significantly different from that of DEET”.
In the case of `CCCCOC(=O)c1ccccc1NC=O` [nBFA, n-Butyl N-formylanthranilate], in assay [1], the “Minimum Effective Dose (MED)” value is on record as 0.0075 mg/cm^2 and the “MED, times lower than the initial screening dose” value stood at 25 times. For the same compound, in assay [2], the “RD50 (30 min), half-repellent dose” value is recorded as above 100 μg/cm^2; the “RD50 (60 min), half-repellent dose” value was above 100 μg/cm^2; the “spatial repellency (in words)” value was “did not show any spatial repellencies”.
On to `COC(=O)c1ccc(N)cc1` [M4AB, methyl 4-aminobenzoate], for which, in assay [1], the “Minimum Effective Dose (MED)” value is recorded as above 0.187 mg/cm^2 and the “topical repellency (in words)” value is reported as “did not show any topical repellencies”. Further, in assay [2], the “RD50 (30 min), half-repellent dose” value is recorded as above 100 μg/cm^2; the “RD50 (60 min), half-repellent dose” value was above 100 μg/cm^2; the “spatial repellency (in words)” value is “did not show spatial repellencies”.
Regarding `COC(=O)c1ccccc1Cl` [M2CB, methyl 2-chlorobenzoate], in assay [1], the “Minimum Effective Dose (MED)” value is 0.164 mg/cm^2 and the “topical repellency (in words)” value is “demonstrated repellency at doses lower than 0.187 mg/cm^2 on at least one test subject”. In assay [2], the “30-minute RD50 compared with that of DEET” value is listed as “not significantly different from that of DEET”.
Regarding `CCOC(=O)c1ccccc1N` [EA, ethyl anthranilate], the “Minimum Effective Dose (MED)” value in assay [1] was 0.037 mg/cm^2. For the same compound, the “30-minute RD50 compared with that of DEET” value in assay [2] is on record as “significantly lower than that of DEET”.
Take `CCCOC(=O)c1ccccc1` [nPrB, n-propyl benzoate]: in assay [1], the “Minimum Effective Dose (MED)” value stood at 0.250 mg/cm^2 and the “topical repellency (in words)” value was “demonstrated repellency at doses lower than 0.187 mg/cm^2 on at least one test subject”. Besides, in assay [2], the “RD50 (30 min), half-repellent dose” value is given as above 100 μg/cm^2; the “RD50 (60 min), half-repellent dose” value is on record as above 100 μg/cm^2; the “spatial repellency (in words)” value is on record as “did not show spatial repellencies”.
Take `COC(=O)c1ccc(OC)cc1` [M4MOB, methyl 4-methoxybenzoate]: in assay [1], the “Minimum Effective Dose (MED)” value is on record as above 0.187 mg/cm^2 and the “topical repellency (in words)” value is listed as “did not show any topical repellencies”. In assay [2], the “RD50 (30 min), half-repellent dose” value is recorded as above 100 μg/cm^2; the “RD50 (60 min), half-repellent dose” value is recorded as above 100 μg/cm^2; the “spatial repellency (in words)” value is on record as “did not show spatial repellencies”.
On to `CCOC(=O)c1ccccc1OC` [E2MOB, ethyl 2-methoxybenzoate], for which the “topical repellency (in words)” value in assay [1] is given as “did not exhibit topical repellency”. For the same compound, in assay [2], the “RD50 (30 min), half-repellent dose” value was found to be 8.83 μg/cm^2 and the “30-minute RD50 compared with that of DEET” value was “significantly lower than that of DEET”.
Consider `CCCOC(=O)c1ccccc1NC=O` [nPrFA, n-Propyl N-formylanthranilate], for which, in assay [1], the “Minimum Effective Dose (MED)” value was found to be 0.0028 mg/cm^2 and the “MED, times lower than the initial screening dose” value was 64 times. In assay [2], the “RD50 (30 min), half-repellent dose” value is above 100 μg/cm^2; the “RD50 (60 min), half-repellent dose” value is reported as above 100 μg/cm^2; the “spatial repellency (in words)” value is recorded as “did not show any spatial repellencies”.
As for `COC(=O)c1ccccc1NC(C)=O` [MAcA, methyl N-acetylanthranilate], in assay [1], the “Minimum Effective Dose (MED)” value is given as 0.101 mg/cm^2 and the “topical repellency (in words)” value is given as “demonstrated repellency at doses lower than 0.187 mg/cm^2 on at least one test subject”. Besides, in assay [2], the “RD50 (30 min), half-repellent dose” value is listed as above 100 μg/cm^2; the “RD50 (60 min), half-repellent dose” value is on record as above 100 μg/cm^2; the “spatial repellency (in words)” value is “did not show spatial repellencies”.
Turning to `COC(=O)c1ccccc1S(N)(=O)=O` [M2ASB, methyl 2-(aminosulfonyl)benzoate], in assay [1], the “Minimum Effective Dose (MED)” value is reported as above 0.187 mg/cm^2 and the “topical repellency (in words)” value was “did not show any topical repellencies”. Besides, in assay [2], the “RD50 (30 min), half-repellent dose” value is given as above 100 μg/cm^2; the “RD50 (60 min), half-repellent dose” value is reported as above 100 μg/cm^2; the “spatial repellency (in words)” value was “did not show spatial repellencies”.
On to `COC(=O)c1ccc(C(F)(F)F)cc1` [M4tFMB, methyl 4-(trifluoromethyl)benzoate], for which, in assay [1], the “Minimum Effective Dose (MED)” value is on record as above 0.187 mg/cm^2 and the “topical repellency (in words)” value is given as “did not show any topical repellencies”. For the same compound, in assay [2], the “RD50 (30 min), half-repellent dose” value is given as above 100 μg/cm^2; the “RD50 (60 min), half-repellent dose” value is on record as above 100 μg/cm^2; the “spatial repellency (in words)” value is reported as “did not show spatial repellencies”.
On to `C=COC(=O)c1ccccc1` [VB, vinyl benzoate], for which, in assay [1], the “Minimum Effective Dose (MED)” value is above 0.187 mg/cm^2 and the “topical repellency (in words)” value is “did not show any topical repellencies”. Also, in assay [2], the “RD50 (30 min), half-repellent dose” value is above 100 μg/cm^2; the “RD50 (60 min), half-repellent dose” value was above 100 μg/cm^2; the “spatial repellency (in words)” value is “did not show spatial repellencies”.
For the compound `COC(=O)c1ccc(O)cc1` [M4HB, methyl 4-hyhroxylbenzoate], in assay [1], the “Minimum Effective Dose (MED)” value was above 0.187 mg/cm^2 and the “topical repellency (in words)” value is given as “did not show any topical repellencies”. Further, in assay [2], the “RD50 (30 min), half-repellent dose” value is given as above 100 μg/cm^2; the “RD50 (60 min), half-repellent dose” value is given as above 100 μg/cm^2; the “spatial repellency (in words)” value is “did not show spatial repellencies”.
With `COC(=O)c1cccc(C)c1` [M3MB, methyl 3-methylbenzoate], in assay [1], the “Minimum Effective Dose (MED)” value was determined as 0.219 mg/cm^2 and the “topical repellency (in words)” value was “demonstrated repellency at doses lower than 0.187 mg/cm^2 on at least one test subject”. For the same compound, in assay [2], the “RD50 (30 min), half-repellent dose” value was above 100 μg/cm^2; the “RD50 (60 min), half-repellent dose” value was above 100 μg/cm^2; the “spatial repellency (in words)” value was “did not show spatial repellencies”.
On to `COC(=O)c1ccc(Cl)cc1` [M4CB, methyl 4-chlorobenzoate], for which, in assay [1], the “Minimum Effective Dose (MED)” value was above 0.187 mg/cm^2 and the “topical repellency (in words)” value is recorded as “did not show any topical repellencies”. Further, in assay [2], the “RD50 (30 min), half-repellent dose” value is recorded as above 100 μg/cm^2; the “RD50 (60 min), half-repellent dose” value is given as above 100 μg/cm^2; the “spatial repellency (in words)” value is reported as “did not show spatial repellencies”.
